Assay results: PubChem BioAssay AID248 (DTP/NCI, 2004)
Several values for one entry are separate records, joined by “and”; a condition that tells them apart may be missing. Equal values may be shown once. Toxic doses and inconclusive results are not listed. Rule as the data show it: active = T/C of 150% or more; inactive = T/C below 125%.

Test system: L1210 leukemia ip in BDF1 mice, survival T/C
Assay: NCI In Vivo Anticancer Drug Screen. Data for tumor model L1210 Leukemia (intraperitoneal) in B6D2F1 (BDF1) mice
Conditions: endpoint: mean survival time, higher = longer survival
In short: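 Tumor cells were implanted, animals were treated, and survival was followed. The result divides the treated measurement by the vehicle-control measurement.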

[1] = dose: 12.5 mg/kg/injection, schedule: Q01DX009 (ip), vehicle: Klucel (hydroxypropylcellulose) (HPC)
[2] = dose: 100.0 mg/kg/injection, schedule: Q01DX001 (ip), vehicle: Klucel (hydroxypropylcellulose) (HPC)
[3] = dose: 100.0 mg/kg/injection, schedule: Q04DX003 (ip), vehicle: Klucel (hydroxypropylcellulose) (HPC)
[4] = dose: 200.0 mg/kg/injection, schedule: Q01DX001 (ip), vehicle: Klucel (hydroxypropylcellulose) (HPC)
[5] = dose: 200.0 mg/kg/injection, schedule: Q04DX003 (ip), vehicle: Klucel (hydroxypropylcellulose) (HPC)
[6] = dose: 400.0 mg/kg/injection, schedule: Q04DX003 (ip), vehicle: Klucel (hydroxypropylcellulose) (HPC)
[7] = dose: 100.0 mg/kg/injection, schedule: Q04DX002 (ip), vehicle: Klucel (hydroxypropylcellulose) (HPC)
[8] = dose: 200.0 mg/kg/injection, schedule: Q04DX002 (ip), vehicle: Klucel (hydroxypropylcellulose) (HPC)
[9] = dose: 400.0 mg/kg/injection, schedule: Q04DX002 (ip), vehicle: Klucel (hydroxypropylcellulose) (HPC)
[10] = dose: 100.0 mg/kg/injection, schedule: Q01DX009 (ip), vehicle: Klucel (hydroxypropylcellulose) (HPC)
[11] = dose: 200.0 mg/kg/injection, schedule: Q01DX009 (ip), vehicle: Klucel (hydroxypropylcellulose) (HPC)
[12] = dose: 400.0 mg/kg/injection, schedule: Q01DX009 (ip), vehicle: Klucel (hydroxypropylcellulose) (HPC)

Measured: T/C

O=C1OCCN1S(=O)(=O)c1ccc([N+](=O)[O-])cc1
inactive: dose: 3.12 mg/kg/injection, schedule: Q01DX009 (ip), vehicle: Klucel (hydroxypropylcellulose) (HPC) 94 % of control | dose: 6.25 mg/kg/injection, schedule: Q01DX009 (ip), vehicle: Klucel (hydroxypropylcellulose) (HPC) 93 % of control | [1] 94 % of control | [2] 86 % of control | [3] 97 % of control | [4] 91 % of control | [5] 92 % of control | [6] 88 % of control

Cc1cc2nc3c(nc2cc1C)-c1ccccc1C3=O
inactive: dose: 100.0 mg/kg/injection, schedule: Q01DX009 (ip), vehicle: saline with Tween-80 117 % of control | dose: 200.0 mg/kg/injection, schedule: Q01DX009 (ip), vehicle: saline with Tween-80 101 % of control | dose: 400.0 mg/kg/injection, schedule: Q01DX009 (ip), vehicle: saline with Tween-80 97 % of control

O=C(O)c1cc(Br)ccc1I
inactive: [7] 104 % of control | [8] 97 % of control | [9] 101 % of control

CCCC(=O)OCC
inactive: [10] 100 % of control | [11] 105 % of control | [12] 97 % of control

COc1ccc2ccc(OC)c(C=O)c2c1
inactive: dose: 75.0 mg/kg/injection, schedule: Q01DX009 (ip), vehicle: Klucel (hydroxypropylcellulose) (HPC) 98 % of control | dose: 150.0 mg/kg/injection, schedule: Q01DX009 (ip), vehicle: Klucel (hydroxypropylcellulose) (HPC) 101 % of control | dose: 300.0 mg/kg/injection, schedule: Q01DX009 (ip), vehicle: Klucel (hydroxypropylcellulose) (HPC) 98 % of control

CC(C)=CC(=O)CNC(N)=S
inactive: [3] 100 % of control and 98 % of control | [5] 101 % of control | [6] 93 % of control

Cc1cc(C)c(N(CC(=O)O)S(=O)(=O)c2ccccc2)c(Sc2ccccc2)c1
inactive: [2] 113 % of control | [4] 98 % of control | dose: 400.0 mg/kg/injection, schedule: Q01DX001 (ip), vehicle: Klucel (hydroxypropylcellulose) (HPC) 100 % of control

O=C(O)c1cccc(-c2ccccc2)c1
inactive: dose: 25.0 mg/kg/injection, schedule: Q04DX003 (ip), vehicle: saline with Tween-80 94 % of control | dose: 50.0 mg/kg/injection, schedule: Q04DX003 (ip), vehicle: saline with Tween-80 93 % of control | dose: 100.0 mg/kg/injection, schedule: Q04DX003 (ip), vehicle: saline with Tween-80 104 % of control | dose: 100.0 mg/kg/injection, schedule: Q04DX003 (ip), vehicle: saline 101 % of control | dose: 200.0 mg/kg/injection, schedule: Q04DX003 (ip), vehicle: saline with Tween-80 94 % of control and 100 % of control | dose: 200.0 mg/kg/injection, schedule: Q04DX003 (ip), vehicle: saline 106 % of control | dose: 400.0 mg/kg/injection, schedule: Q04DX003 (ip), vehicle: saline 108 % of control

CC(C)CCC[C@@H](C)[C@H]1CC[C@H]2[C@@H]3CC=C4C[C@@H](Cl)CC[C@]4(C)[C@H]3CC[C@]12C
inactive: dose: 100.0 mg/kg/injection, schedule: Q01DX009 (sc), vehicle: Klucel (hydroxypropylcellulose) (HPC) 110 % of control | dose: 200.0 mg/kg/injection, schedule: Q01DX009 (sc), vehicle: Klucel (hydroxypropylcellulose) (HPC) 101 % of control | dose: 400.0 mg/kg/injection, schedule: Q01DX009 (sc), vehicle: Klucel (hydroxypropylcellulose) (HPC) 114 % of control

Clc1ccc(/C=N/c2snc3ccccc23)c(Cl)c1
inactive: [7] 95 % of control | [8] 88 % of control | [9] 92 % of control

CCOC(=O)c1ccccc1COc1ccc([N+](=O)[O-])cc1Cl
inactive: [10] 93 % of control | [11] 93 % of control | [12] 88 % of control

CC(=O)OCC[N+](C)(C)CCCCCCCCCC[N+](C)(C)CCOC(C)=O
inactive: dose: 3.0 mg/kg/injection, schedule: Q01DX009 (ip), vehicle: saline 100 % of control | dose: 6.25 mg/kg/injection, schedule: Q01DX009 (ip), vehicle: saline 89 % of control | [1] 97 % of control

CCCCCCCC(C)NCCOC(=O)c1ccc(N)cc1 (configuration not stated)
inactive: dose: 75.0 mg/kg/injection, schedule: Q01DX001 (ip), vehicle: other 117 % of control | dose: 150.0 mg/kg/injection, schedule: Q01DX001 (ip), vehicle: other 101 % of control
